Laboratory results reported in PubChem BioAssay (NCI).
“And” between values parts separate entries of the source, which are not always exact repeats. Equal values may be shown once.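 48-hour exposure; five concentrations; linearly interpolated endpoints. Abbreviation: GI50, concentration required for 50% inhibition of growth. Definition used: TGI = concentration required for complete inhibition of growth.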

Key:
Assay in all cases: growth of human tumour cells (NCI), 48 h
A549 NSCLC = system: A549 NSCLC
UACC-62 melanoma = system: UACC-62 melanoma
COLO 205 colon = system: COLO 205 colon
CAKI-1 renal = system: CAKI-1 renal
CCRF-CEM leukemia = system: CCRF-CEM leukemia
K-562 leukemia = system: K-562 leukemia
T-47D breast = system: T-47D breast
HCT-116 colon = system: HCT-116 colon
SR leukemia = system: SR leukemia
HOP-92 NSCLC = system: HOP-92 NSCLC

SMILES	GI50 (A549 NSCLC)	TGI (A549 NSCLC)	GI50 (UACC-62 melanoma)	TGI (UACC-62 melanoma)	GI50 (COLO 205 colon)	TGI (COLO 205 colon)	GI50 (CAKI-1 renal)	TGI (CAKI-1 renal)	GI50 (CCRF-CEM leukemia)	TGI (CCRF-CEM leukemia)	GI50 (K-562 leukemia)	TGI (K-562 leukemia)	GI50 (T-47D breast)	TGI (T-47D breast)	GI50 (HCT-116 colon)	TGI (HCT-116 colon)	GI50 (SR leukemia)	TGI (SR leukemia)	GI50 (HOP-92 NSCLC)	TGI (HOP-92 NSCLC)
Nc1c(C(=O)c2ccc(C#CCN3CCOCC3)cc2)cnn1-c1ccc(F)cc1	> 25 µM	> 25 µM	> 25 µM	> 25 µM	> 25 µM	> 25 µM	> 25 µM	> 25 µM	> 25 µM	> 25 µM	> 25 µM	> 25 µM	> 25 µM	> 25 µM	> 25 µM	> 25 µM	> 25 µM	> 25 µM	> 25 µM	> 25 µM
CCSc1nc(NC(C)c2ccccc2)c2cnn(CO)c2n1 (stereo not given)	> 100 µM	> 100 µM	26.6 µM	> 100 µM	> 100 µM	> 100 µM	0.135 µM	56.1 µM	> 100 µM	> 100 µM	29.2 µM	> 100 µM	> 100 µM	> 100 µM	> 100 µM	> 100 µM	79.4 µM	> 100 µM	18.2 µM	97.1 µM
CON=C1C[C@]2(C[C@@H]3C[C@@H](C/C=C(\C)C[C@@H](C)/C=C/C=C4\CO[C@@H]5[C@H](O)C(C)=C[C@@H](C(=O)O3)[C@]45O)O2)O[C@H](/C(C)=C/C(C)C)[C@H]1C	13.8 µM	29.1 µM	14.4 µM	29.6 µM	13.7 µM	28.5 µM	7.52 µM	21.6 µM	7.65 µM	34.3 µM	3.69 µM	10.8 µM	8.9 µM	22.2 µM	5.44 µM	19 µM	3.91 µM	40.9 µM	1.99 µM	11.8 µM
O=C(/C=C\c1cc(Br)ccc1O)/C=C/c1cc(Br)ccc1O	2.61 µM	13.5 µM	0.429 µM	1.8 µM	1.55 µM	3.69 µM	0.938 µM	3.33 µM	0.282 µM	10.5 µM	0.445 µM	8.12 µM	0.635 µM	4.94 µM	0.345 µM	1.26 µM	0.321 µM	29.7 µM	1.57 µM	3.69 µM
Cc1ccc(S(=O)(=O)OCC(=O)Nc2ccc(C(=O)O)c(O)c2)cc1	199 µM	503 µM	20.9 µM	61.4 µM	113 µM	259 µM	14.7 µM	91.1 µM	13.7 µM	69 µM	28.9 µM	120 µM	43.2 µM	133 µM	20.5 µM	69 µM	0.195 µM	7.08 µM	20 µM	56.7 µM
COc1ccc(/C(=C/c2ccc3ccccc3c2)c2nn[nH]n2)cc1OC	3.8 µM	> 100 µM	0.867 µM	> 100 µM	2.27 µM	6.56 µM	2.24 µM	> 100 µM	3.33 µM	> 100 µM	0.678 µM	> 100 µM	28.2 µM	> 100 µM	2.42 µM	> 100 µM	2.23 µM	> 100 µM	4.59 µM	79.8 µM
O=c1c2cccc(F)c2sc2c(NCCCNCCO)nc3ccccc3c12	1.13 µM	3.08 µM	1.77 µM	3.26 µM	1.61 µM	3.96 µM	1.42 µM	2.73 µM	1.41 µM	3.87 µM	1.75 µM	4.64 µM	1.76 µM	4.1 µM	1.39 µM	2.78 µM	0.984 µM	4.85 µM	1.42 µM	5.15 µM
COc1ccc(C2=NN(C=O)C(c3ccc(OS(=O)(=O)c4ccc(C)cc4)c(OC)c3)C2)cc1 (stereo not given)	9.42 µM	> 100 µM	3.73 µM	> 100 µM	8.44 µM	> 100 µM	5.35 µM	> 100 µM	4.05 µM	> 100 µM	2.45 µM	> 100 µM	2.27 µM	> 100 µM	4.56 µM	> 100 µM	3.02 µM	> 100 µM	1.88 µM	31.1 µM
CS(=O)(=O)c1ccc2c(c1)C(=O)c1c-2n(CCCBr)c(=O)c2cc([N+](=O)[O-])ccc12	7.34 µM	> 100 µM	4.26 µM	> 100 µM	> 100 µM	> 100 µM	16.4 µM	> 100 µM	0.758 µM	30.7 µM	5.15 µM	> 100 µM	4.88 µM	> 100 µM	7.44 µM	> 100 µM	1.06 µM	> 100 µM	10.9 µM	40 µM
CC(C)n1nc(C#Cc2cccc(O)c2)c2c(N)ncnc21	2.62 µM and 3.17 µM	18.3 µM and 14.6 µM	0.82 µM and 0.346 µM	2.59 µM and 1.58 µM	1.53 µM and 1.89 µM	12.7 µM and 13.2 µM	1.66 µM and 1.59 µM	6.06 µM and 6.87 µM	1.65 µM and 1.15 µM	50 µM and 13.3 µM	0.0636 µM and 0.0283 µM	50 µM and > 100 µM	1.01 µM and 0.864 µM	3.38 µM and 4.09 µM	1.17 µM and 0.586 µM	7.78 µM and 10.8 µM	1.17 µM and 0.573 µM	23.4 µM and 11.4 µM	0.489 µM and 0.187 µM	2.35 µM and 0.774 µM
COc1ccc(N=N/C(=N\NC(=O)c2cc(Br)ccc2O)c2ccc(N(CCC#N)CCC#N)cc2OC)cc1	77.1 µg/mL	> 150 µg/mL	94.2 µg/mL	> 150 µg/mL	50.6 µg/mL	> 150 µg/mL	53.3 µg/mL	> 150 µg/mL	57.1 µg/mL	> 150 µg/mL	74.9 µg/mL	> 150 µg/mL	72.5 µg/mL	> 150 µg/mL	60.6 µg/mL	> 150 µg/mL	62.8 µg/mL	> 150 µg/mL	81.9 µg/mL	> 150 µg/mL
COc1ccc(NC(=S)C#N)cc1		> 100 µM		> 100 µM		> 100 µM		> 100 µM		> 100 µM		> 100 µM		> 100 µM		> 100 µM		> 100 µM		> 100 µM
O=C(COc1cccc(/C=C2\COc3ccccc3C2=O)c1)c1ccccc1	15.7 µM	49.7 µM	3 µM	10.2 µM	2.93 µM	10.3 µM	3.32 µM	12.7 µM	1.98 µM	7.62 µM	2.05 µM	5.65 µM	2.53 µM	6.04 µM	2.12 µM	4.08 µM	2.17 µM	6.66 µM	2.94 µM	16.8 µM
NC(CP(=O)(O)O)C(=O)O (stereo not given)		> 100 µM		> 100 µM		> 100 µM		> 100 µM		> 100 µM		> 100 µM		> 100 µM		> 100 µM		> 100 µM		> 100 µM
